# Test results as given in PubChem BioAssay AID1963845 (Molecular Pharmacology Branch, DTP, NCI, 2024).
# Test system: 429239-143-T-J1-PDC complex spheroid viability
# Experiment: Anticancer human tumor 429239-143-T-J1-PDC patient-derived small cell lung carcinoma cell line growth inhibition [POLQ]
# Settings: for IC50: curve of first compound; for viability, T/C: stronger effect = lower value
# Outline: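 Complex spheroid viability model combining PDC tumour cells with endothelial (HUVEC) and MSC stromal cells. Novobiocin, ART-558 or RP6685 were tested singly and in combination with standard and investigational anticancer drugs. Each was titrated in half-log steps from near clinical Cmax, or from 10 microM where Cmax was unknown.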
# [1] = second compound 0.0316 µM, first compound 0.0316 µM
# [2] = second compound 0.0316 µM, first compound 0.1 µM
# [3] = second compound 0.0316 µM, first compound 0.316 µM
# [4] = second compound 0.0316 µM, first compound 1 µM
# [5] = second compound 0.0316 µM, first compound 3.16 µM
# [6] = second compound 0.0316 µM, first compound 10 µM
# [7] = second compound 0.1 µM, first compound 0.0316 µM
# [8] = second compound 0.1 µM, first compound 0.1 µM
# [9] = second compound 0.1 µM, first compound 0.316 µM
# [10] = second compound 0.1 µM, first compound 1 µM
# [11] = second compound 0.1 µM, first compound 3.16 µM
# [12] = second compound 0.1 µM, first compound 10 µM
# [13] = second compound 0.316 µM, first compound 0.0316 µM
# [14] = second compound 0.316 µM, first compound 0.1 µM
# [15] = second compound 0.316 µM, first compound 0.316 µM
# [16] = second compound 0.316 µM, first compound 1 µM
# [17] = second compound 0.316 µM, first compound 3.16 µM
# [18] = second compound 0.316 µM, first compound 10 µM
# [19] = second compound 1 µM, first compound 0.0316 µM
# [20] = second compound 1 µM, first compound 0.1 µM
# [21] = second compound 1 µM, first compound 0.316 µM
# [22] = second compound 1 µM, first compound 1 µM
# [23] = second compound 1 µM, first compound 3.16 µM
# [24] = second compound 1 µM, first compound 10 µM
# [25] = second compound 3.16 µM, first compound 0.0316 µM
# [26] = second compound 3.16 µM, first compound 0.1 µM
# [27] = second compound 3.16 µM, first compound 0.316 µM
# [28] = second compound 3.16 µM, first compound 1 µM
# [29] = second compound 3.16 µM, first compound 3.16 µM
# [30] = second compound 3.16 µM, first compound 10 µM
# [31] = second compound 10 µM, first compound 0.0316 µM
# [32] = second compound 10 µM, first compound 0.1 µM
# [33] = second compound 10 µM, first compound 0.316 µM
# [34] = second compound 10 µM, first compound 1 µM
# [35] = second compound 10 µM, first compound 3.16 µM
# [36] = second compound 10 µM, first compound 10 µM
# 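Further: luminescence signal used as surrogate measure of viable cells; spheroids exposed to compounds for seven days before readout.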
# 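Wherever viability, T/C is given: 100% = DMSO vehicle control viability as luminescence relative to vehicle.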
smiles,measurement,setting,value
CCc1cc2c(N3CCc4c(cc(Cn5ccnc5)cc4-c4cn(C)nc4C(F)(F)F)C3=O)ccnc2c(OC)n1 + Cc1cccc(N(C)C(=O)C2C(O)CCN2c2nc(C)cc(C(F)(F)F)c2C#N)c1,IC50,second compound 0.0316 µM,> 10 µM
same,IC50,second compound 0.1 µM,> 10 µM
same,IC50,second compound 0.316 µM,> 10 µM
same,IC50,second compound 1 µM,> 10 µM
same,IC50,second compound 3.16 µM,> 10 µM
same,IC50,second compound 10 µM,8.42 µM
same,"viability, T/C",[1],117%
same,"viability, T/C",[2],102%
same,"viability, T/C",[3],98.2%
same,"viability, T/C",[4],88.4%
same,"viability, T/C",[5],85.3%
same,"viability, T/C",[6],49.8%
same,"viability, T/C",[7],103%
same,"viability, T/C",[8],113%
same,"viability, T/C",[9],93.2%
same,"viability, T/C",[10],89.1%
same,"viability, T/C",[11],85.7%
same,"viability, T/C",[12],57.6%
same,"viability, T/C",[13],116%
same,"viability, T/C",[14],97.8%
same,"viability, T/C",[15],96.8%
same,"viability, T/C",[16],86%
same,"viability, T/C",[17],78.3%
same,"viability, T/C",[18],56.6%
same,"viability, T/C",[19],107%
same,"viability, T/C",[20],95.4%
same,"viability, T/C",[21],89.2%
same,"viability, T/C",[22],87.8%
same,"viability, T/C",[23],86.7%
same,"viability, T/C",[24],56.6%
same,"viability, T/C",[25],104%
same,"viability, T/C",[26],108%
same,"viability, T/C",[27],96.5%
same,"viability, T/C",[28],95.6%
same,"viability, T/C",[29],77.7%
same,"viability, T/C",[30],50.8%
same,"viability, T/C",[31],111%
same,"viability, T/C",[32],91.8%
same,"viability, T/C",[33],104%
same,"viability, T/C",[34],96.5%
same,"viability, T/C",[35],72.2%
same,"viability, T/C",[36],46.1%
COc1cccc2c1C(=O)c1c(O)c3c(c(O)c1C2=O)CC(O)(C(=O)CO)CC3OC1CC(N)C(O)C(C)O1 (stereo not given) + Cc1cccc(N(C)C(=O)C2C(O)CCN2c2nc(C)cc(C(F)(F)F)c2C#N)c1,IC50,second compound 0.0316 µM,0.0565 µM
same,IC50,second compound 0.1 µM,0.0579 µM
same,IC50,second compound 0.316 µM,0.0478 µM
same,IC50,second compound 1 µM,0.0438 µM
same,IC50,second compound 3.16 µM,0.0469 µM
same,IC50,second compound 10 µM,0.0452 µM
same,"viability, T/C",[1],83.3%
same,"viability, T/C",[2],15.2%
same,"viability, T/C",[3],12.4%
same,"viability, T/C",[4],0.22%
same,"viability, T/C",[5],0.12%
same,"viability, T/C",[6],0.13%
same,"viability, T/C",[7],84.9%
same,"viability, T/C",[8],15.6%
same,"viability, T/C",[9],14.7%
same,"viability, T/C",[10],0.15%
same,"viability, T/C",[11],0.11%
same,"viability, T/C",[12],0.09%
same,"viability, T/C",[13],69.1%
same,"viability, T/C",[14],14.3%
same,"viability, T/C",[15],11.2%
same,"viability, T/C",[16],0.17%
same,"viability, T/C",[17],0.16%
same,"viability, T/C",[18],0.11%
same,"viability, T/C",[19],62.7%
same,"viability, T/C",[20],16%
same,"viability, T/C",[21],14.7%
same,"viability, T/C",[22],0.15%
same,"viability, T/C",[23],0.13%
same,"viability, T/C",[24],0.09%
same,"viability, T/C",[25],68.1%
same,"viability, T/C",[26],13.6%
same,"viability, T/C",[27],12.1%
same,"viability, T/C",[28],0.14%
same,"viability, T/C",[29],0.25%
same,"viability, T/C",[30],0.15%
same,"viability, T/C",[31],63.8%
same,"viability, T/C",[32],17.8%
same,"viability, T/C",[33],14.5%
same,"viability, T/C",[34],0.17%
same,"viability, T/C",[35],0.25%
same,"viability, T/C",[36],0.2%
CCc1c2c(nc3ccc(O)cc13)-c1cc3c(c(=O)n1C2)COC(=O)[C@]3(O)CC + Nc1ccc(C#CCN(C(=O)Cc2ncc(C(F)(F)F)cc2C(F)(F)F)c2ccc(F)cc2)nn1,IC50,second compound 0.0316 µM,< 0.00316 µM
same,IC50,second compound 0.1 µM,< 0.00316 µM
same,IC50,second compound 0.316 µM,< 0.00316 µM
same,IC50,second compound 1 µM,< 0.00316 µM
same,IC50,second compound 3.16 µM,< 0.00316 µM
same,IC50,second compound 10 µM,< 0.00316 µM
same,"viability, T/C","second compound 0.0316 µM, first compound 0.00316 µM",12%
same,"viability, T/C","second compound 0.0316 µM, first compound 0.01 µM",8.29%
same,"viability, T/C",[1],7.72%
same,"viability, T/C",[2],6.64%
same,"viability, T/C",[3],4.44%
same,"viability, T/C",[4],1.99%
same,"viability, T/C","second compound 0.1 µM, first compound 0.00316 µM",10.2%
same,"viability, T/C","second compound 0.1 µM, first compound 0.01 µM",7.32%
same,"viability, T/C",[7],7.97%
same,"viability, T/C",[8],6.96%
same,"viability, T/C",[9],4.07%
same,"viability, T/C",[10],3.28%
same,"viability, T/C","second compound 0.316 µM, first compound 0.00316 µM",8.87%
same,"viability, T/C","second compound 0.316 µM, first compound 0.01 µM",7.47%
same,"viability, T/C",[13],6.42%
same,"viability, T/C",[14],7.02%
same,"viability, T/C",[15],6%
same,"viability, T/C",[16],3.04%
same,"viability, T/C","second compound 1 µM, first compound 0.00316 µM",8.25%
same,"viability, T/C","second compound 1 µM, first compound 0.01 µM",8.49%
same,"viability, T/C",[19],7.35%
same,"viability, T/C",[20],7.22%
same,"viability, T/C",[21],4.56%
same,"viability, T/C",[22],1.52%
same,"viability, T/C","second compound 3.16 µM, first compound 0.00316 µM",8.61%
same,"viability, T/C","second compound 3.16 µM, first compound 0.01 µM",7.3%
same,"viability, T/C",[25],8.79%
same,"viability, T/C",[26],8.33%
same,"viability, T/C",[27],4.53%
same,"viability, T/C",[28],2.41%
same,"viability, T/C","second compound 10 µM, first compound 0.00316 µM",6.48%
same,"viability, T/C","second compound 10 µM, first compound 0.01 µM",7.39%
same,"viability, T/C",[31],8.55%
same,"viability, T/C",[32],6.94%
same,"viability, T/C",[33],4.47%
same,"viability, T/C",[34],1.68%
CC1COCCN1c1cc(C2(O)CC3CCC(C2)O3)c2cnn(-c3ccn[nH]3)c2n1 (stereo not given) + Cc1cccc(N(C)C(=O)C2C(O)CCN2c2nc(C)cc(C(F)(F)F)c2C#N)c1,IC50,second compound 0.0316 µM,0.0672 µM
same,IC50,second compound 0.1 µM,0.0668 µM
same,IC50,second compound 0.316 µM,0.0617 µM
same,IC50,second compound 1 µM,0.071 µM
same,IC50,second compound 3.16 µM,0.0478 µM
same,IC50,second compound 10 µM,0.063 µM
same,"viability, T/C",[1],76.8%
same,"viability, T/C",[2],35.8%
same,"viability, T/C",[3],17.6%
same,"viability, T/C",[4],10.3%
same,"viability, T/C",[5],7.41%
same,"viability, T/C",[6],5.4%
same,"viability, T/C",[7],69.6%
same,"viability, T/C",[8],39.6%
same,"viability, T/C",[9],19.3%
same,"viability, T/C",[10],11.8%
same,"viability, T/C",[11],7.54%
same,"viability, T/C",[12],5.93%
same,"viability, T/C",[13],62.1%
same,"viability, T/C",[14],41.3%
same,"viability, T/C",[15],16.2%
same,"viability, T/C",[16],9.23%
same,"viability, T/C",[17],9.02%
same,"viability, T/C",[18],5.86%
same,"viability, T/C",[19],73.8%
same,"viability, T/C",[20],40%
same,"viability, T/C",[21],17.7%
same,"viability, T/C",[22],9.58%
same,"viability, T/C",[23],8.48%
same,"viability, T/C",[24],5.82%
same,"viability, T/C",[25],60.1%
same,"viability, T/C",[26],31.8%
same,"viability, T/C",[27],17.9%
same,"viability, T/C",[28],10.3%
same,"viability, T/C",[29],8.26%
same,"viability, T/C",[30],6.08%
same,"viability, T/C",[31],63%
same,"viability, T/C",[32],41.5%
same,"viability, T/C",[33],18.5%
same,"viability, T/C",[34],10.8%
same,"viability, T/C",[35],9.19%
same,"viability, T/C",[36],5.28%
CCCS(=O)(=O)Nc1ccc(F)c(C(=O)c2c[nH]c3ncc(-c4ccc(Cl)cc4)cc23)c1F + Nc1ccc(C#CCN(C(=O)Cc2ncc(C(F)(F)F)cc2C(F)(F)F)c2ccc(F)cc2)nn1,IC50,second compound 0.0316 µM,> 10 µM
same,IC50,second compound 0.1 µM,> 10 µM
same,IC50,second compound 0.316 µM,> 10 µM
same,IC50,second compound 1 µM,> 10 µM
same,IC50,second compound 3.16 µM,> 10 µM
same,IC50,second compound 10 µM,> 10 µM
same,"viability, T/C",[1],99%
same,"viability, T/C",[2],111%
same,"viability, T/C",[3],101%
same,"viability, T/C",[4],110%
same,"viability, T/C",[5],104%
same,"viability, T/C",[6],93.3%
same,"viability, T/C",[7],106%
same,"viability, T/C",[8],102%
same,"viability, T/C",[9],96.9%
same,"viability, T/C",[10],100%
same,"viability, T/C",[11],98.3%
same,"viability, T/C",[12],88.7%
same,"viability, T/C",[13],105%
same,"viability, T/C",[14],108%
same,"viability, T/C",[15],106%
same,"viability, T/C",[16],106%
same,"viability, T/C",[17],108%
same,"viability, T/C",[18],93.4%
same,"viability, T/C",[19],114%
same,"viability, T/C",[20],99.5%
same,"viability, T/C",[21],97.4%
same,"viability, T/C",[22],104%
same,"viability, T/C",[23],112%
same,"viability, T/C",[24],91%
same,"viability, T/C",[25],105%
same,"viability, T/C",[26],104%
same,"viability, T/C",[27],94.6%
same,"viability, T/C",[28],102%
same,"viability, T/C",[29],101%
same,"viability, T/C",[30],94.9%
same,"viability, T/C",[31],116%
same,"viability, T/C",[32],98.3%
same,"viability, T/C",[33],105%
same,"viability, T/C",[34],108%
same,"viability, T/C",[35],102%
same,"viability, T/C",[36],89.1%
